Consider seven molecules from publication PMC10107299, “Neutralizing the Impact of the Virulence Factor LecA from Pseudomonas aeruginosa on Human Cells with New Glycomimetic Inhibitors” (Angewandte Chemie (International Ed. in English), 2023).

Converted amounts (≈) assume the structure as drawn.

A short description of data set [1]: Kinetic solubility in TBS/Ca2+ buffer (HPLC-MS). The note with it: aqueous buffer, kinetic from dmso stock; TBS/Ca2+ buffer pH 7.4, 1 % DMSO, N≥3; read-out: Solubility S (kinetic). It counts as physicochemical. As to the method: Next, we quantified the solubility of at least one representative of each new class and of one parent bisacylhydrazone in aqueous media (Table 1). […]
TBS/Ca2+ buffer (20 mM Tris, 137 mM NaCl, 2.6 mM KCl at pH 7.4 supplemented with 1 mM […]
CaCl2) in presence of 25% DMSO. […]
Kinetic solubility was determined on the analytical HPLC-MS using Compass QuantAnalysis quantification software (Bruker). Samples were prepared from DMSO stock solutions by dilution with TBS/Ca2+ buffer to 100 µM with 1% DMSO present. Samples were incubated on a shaker for 1 h at r.t., centrifuged (21380 g, 20 min), supernatants were diluted with DMSO (1:3), analyzed by HPLC-MS and fitted to the individual calibration curves.
Every experiment was repeated independently at least three times. […]

Data set [2] in a line: In vitro metabolic stability, human liver microsomes. It counts as in vitro ADME. Conditions: N=3, read-out: CLint HLM. The protocol:
We then determined the in vitro metabolic stability in plasma and liver microsomes as well as plasma protein binding for a selected subset of the synthesized LecA inhibitors, i.e. D1, D2, H1, H2 and L2 and compared them to the parent bisacylhydrazone 14 (Table 2). […] The metabolic stability of the compounds differed in presence of human liver microsomes (HLM). Introduction of a pyridine ring decreased stability (H1 CLint=28.6 μL min^−1/mg protein, H2 CLint=32.5 μL min^−1/mg protein) compared to the benzene analogues (D1 CLint=21.9 μL min^−1/mg protein, D2 CLint=21.0 μL min^−1/mg protein) and to the parent acylhydrazone 14 (CLint=19.6 μL min^−1/mg protein). […]
mixer (Eppendorf). Acetonitrile and caffeine were dispensed using a Mantis Formulatrix. Then samples were centrifuged for 20 min at 2.270 x g at 4 °C and the supernatants were transferred to 96-well Greiner V-bottom plates. Peak areas of each compound and of the internal standard were analyzed using the MultiQuant 3.0 software (AB Sciex). Peak areas of the respective compound were normalized to the internal standard peak area and to the respective peak areas at time point 0 min: (C/D)/(A/B) with A: peak area of the compound at time point 0 min, B: peak area of the internal standard at time point 0 min, C: peak area of the compound at the respective time point, D: peak area of the internal standard at the respective time point.
In vitro metabolic stability assay
Liver microsomes (mouse and human, Thermo Fisher) were thawed slowly on ice. 20 mg/mL of microsomes, 2 µL of a 100 µM solution of every compound and 183 µL of 100 mM phosphate buffer were incubated 5 min at 37 °C in a water bath. Reactions were initiated using 10 µL of 20 mM NADPH (CarlRoth). Samples were incubated in three replicates at 37 °C under gentle agitation at 150 rpm. At 0, 5, 15, 30, and 60 min, reactions were terminated by the addition of 180 µL acetonitrile using a Mantis Formulatrix dispenser. Samples were vortexed for 5 min using an Eppendorf MixMate vortex mixer and centrifuged at 2.270 x g for 20 min at 4 °C. The supernatants were transferred to 96-well Greiner V-bottom plates, sealed and analyzed according to the section HPLC-MS analysis. Peak areas of the respective time point of the compounds were normalized to the peak area at time point 0 min. Then half-life was calculated using linear regression (Microsoft Excel). Clint [µL/min/mg protein] was calculated using the following formula: […]
For orientation: Microsomes from liver hold many membrane-bound enzymes, among them those of drug oxidation.

For data set [3], the target named is T1, LecA (Pseudomonas aeruginosa, UniProt Q05097).
T1 construct: made in house
T1 sequence (Q05097 whole entry): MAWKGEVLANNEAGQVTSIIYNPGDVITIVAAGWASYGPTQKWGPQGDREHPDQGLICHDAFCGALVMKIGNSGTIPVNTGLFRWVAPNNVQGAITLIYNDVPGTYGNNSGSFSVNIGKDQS
Briefly: Direct binding to immobilized LecA by surface plasmon resonance (SPR). The note with it: for kon: SPR single-cycle kinetics, 25 °C, N=3 (I1 N=1); for Relative potency r.p. (SPR): compared to respective monovalent compound in each series. As to the method: K d values were oscillating with the number of methylene units present in the linker, presumably linked to the zig‐zag geometry of the hydrocarbon chain.
Expression and purification of LecA as well as competitive binding by fluorescence polarization was performed as described by Joachim et al..[9] […]
Surface plasmon resonance experiments were performed on a BIACORE X100 instrument (GE Healthcare) at 25 °C as described by Zahorska et. al..[8] Averages and standard deviations were calculated from three independent experiments. […]
Figure S3: SPR of divalent LecA ligands from benzene series. Sensorgrams obtained from SPR single-cycle kinetics experiments. Five different concentrations of each compound (0, 10, 50, 100, 200 nM) were sequentially injected to obtain the experimental sensorgrams (blue lines), which were then fitted by a 1:1 model (orange) on BIACORE evaluation software. […]
Figure S4: SPR of divalent LecA ligands from pyridine and sulfonated series. Sensorgrams obtained from SPR single-cycle kinetics experiments. Five different concentrations of each compound (0, 10, 50, 100, 200 nM) were sequentially injected to obtain the experimental sensorgrams (blue lines), which were then fitted by a 1:1 model (orange) on BIACORE evaluation software.
(also on this page, place not known: Response (RU)0 Response (RU)0 Response (RU) Response (RU) Response (RU) Response (RU) 030060090012001500) […]
(In general: Surface plasmon resonance follows binding to a sensor surface in real time, without labels.)

Data set [4] addresses T1, LecA. Nature of the data set: Competitive binding assay based on fluorescence polarization. The protocol:
All synthesized galactosides were then evaluated for LecA inhibition using a competitive binding assay based on fluorescence polarization (Figure S1).[24]
Expression and purification of LecA as well as competitive binding by fluorescence polarization was performed as described by Joachim et al..[9] The assay was performed in TBS/Ca2+ buffer (20 mM Tris, 137 mM NaCl, 2.6 mM KCl at pH 7.4 supplemented with 1 mM CaCl2) in presence of 25% DMSO. Averages and standard deviations were calculated from at least three independent experiments. […]
RR OR In h i b i to r [µ M ]
R R In h i b i to r [µ M ] […]
R In h i b i to r [µ M ] 30 L2
30 F2 40 K2 In h i b i to r [µ M ] […]
In h i b i to r [µ M ] In h i b i to r [µ M ]
Figure S1: Evaluation of amide divalent LecA ligands in a competitive binding assay based on fluorescence […]
representative experiment is shown or each series. Averages and standard deviations from at least three independent titrations of triplicates each.
[…] Fluorescence polarization [mP] -1 0 1 2 3 0 1001010 Me-α-Gal pNO2-Ph-β-Gal 1000 Inhibitor [µM] Fluorescence polarization [mP])

Broadly, the kinetic solubility is solubility judged after dilution from a stock solution rather than from solid. One may read the Kd as the constant that tells how readily two partners part at equilibrium. The term koff denotes a measure of how fast the partners let go of each other. A high value points to a short-lived complex. The term IC50 denotes the midpoint of a concentration-inhibition curve. Low readings indicate inhibition by little substance, high ones a need for much substance.

Regarding `O=C(/C=C/c1ccc(O[C@@H]2O[C@H](CO)[C@H](O)[C@H](O)[C@H]2O)cc1)Nc1ccc(OCCOc2ccc(NC(=O)/C=C/c3ccc(O[C@@H]4O[C@H](CO)[C@H](O)[C@H](O)[C@H]4O)cc3)cc2)cc1` [Compound D1], the kinetic solubility at 1 h in data set [1] worked out at 3.3 ± 1.3 µM (≈ 2.84 µg/mL). In addition, the microsomal CLint at 1 µM in data set [2] came to 21.9 µL/min/mg. For the same molecule, in data set [3], binding was put at a Kd of 0.0407 ± 0.003 µM, the koff came to 0.00249 ± 0.00028 s⁻¹, the kon is 61.1 ± 2.5 x10^3/Ms and the “Relative potency r.p. (SPR)” value was 128. The same molecule displayed an IC50 in data set [4] of 5.6 ± 3.1 µM.

For `O=C(CCc1ccc(O[C@@H]2O[C@H](CO)[C@H](O)[C@H](O)[C@H]2O)cc1)Nc1ccc(OCCOc2ccc(NC(=O)CCc3ccc(O[C@@H]4O[C@H](CO)[C@H](O)[C@H](O)[C@H]4O)cc3)cc2)cc1` [Compound D2], the kinetic solubility at 1 h in data set [1] was determined as 3.1 ± 2.1 µM (≈ 2.68 µg/mL). Moreover, the microsomal CLint at 1 µM in data set [2] was found to be 21 µL/min/mg. Moreover, in data set [3], the affinity, expressed as Kd, was 0.0231 ± 0.0003 µM; the koff came to 0.00284 ± 6e-05 s⁻¹; the kon is on record as 123 ± 4.1 x10^3/Ms; the “Relative potency r.p. (SPR)” value is 233. The molecule also returned an IC50 in data set [4] of 4.5 ± 1.8 µM.

For the molecule `COc1ccc(NC(=O)CCc2ccc(O[C@@H]3O[C@H](CO)[C@H](O)[C@H](O)[C@H]3O)cc2)cn1` [Compound G2], in data set [3], the Kd was 2.97 ± 0.08 µM and the “Relative potency r.p. (SPR)” value was 1. Moreover, in data set [4], the 50% inhibitory concentration (IC50) is 14.3 ± 7.2 µM.

Regarding `O=C(/C=C/c1ccc(O[C@@H]2O[C@H](CO)[C@H](O)[C@H](O)[C@H]2O)cc1)Nc1ccc(OCCOc2ccc(NC(=O)/C=C/c3ccc(O[C@@H]4O[C@H](CO)[C@H](O)[C@H](O)[C@H]4O)cc3)cn2)nc1` [Compound H1], the solubility (kinetic) at 1 h in data set [1] is 8.1 ± 2.2 µM (≈ 6.99 µg/mL). For the same molecule, the microsomal CLint at 1 µM in data set [2] worked out at 28.6 µL/min/mg. Moreover, in data set [3], binding was characterised by a dissociation constant (Kd) of 0.0137 ± 0.0016 µM, the koff worked out at 0.00165 ± 0.00012 s⁻¹, the kon is listed as 121 ± 6.8 x10^3/Ms and the “Relative potency r.p. (SPR)” value is 217. The IC50 in data set [4] came out at 8 ± 4.3 µM.

`O=C(CCc1ccc(O[C@@H]2O[C@H](CO)[C@H](O)[C@H](O)[C@H]2O)cc1)Nc1ccc(OCCOc2ccc(NC(=O)CCc3ccc(O[C@@H]4O[C@H](CO)[C@H](O)[C@H](O)[C@H]4O)cc3)cn2)nc1` [Compound H2]: the solubility (kinetic) at 1 h in data set [1] turned out to be 14.8 ± 1.5 µM (≈ 12.8 µg/mL). Moreover, in data set [2], the microsomal CLint at 1 µM stood at 32.5 µL/min/mg. Further, in data set [3], the Kd is 0.0099 ± 0.0001 µM, the koff is 0.00141 ± 5e-05 s⁻¹, the kon is reported as 142 ± 3.5 x10^3/Ms and the “Relative potency r.p. (SPR)” value was determined as 300. Moreover, the IC50 in data set [4] is 4.8 ± 2.2 µM.

`Cc1ccc(NC(=O)CCc2ccc(O[C@@H]3O[C@H](CO)[C@H](O)[C@H](O)[C@H]3O)cc2)cc1S(=O)(=O)O` [Compound K2]: in data set [3], binding was put at a Kd of 3.79 ± 0.1 µM and the “Relative potency r.p. (SPR)” value was 1. Moreover, in data set [4], the IC50 was 14.4 ± 3.6 µM.

As for `O=C(CCc1ccc(O[C@@H]2O[C@H](CO)[C@H](O)[C@H](O)[C@H]2O)cc1)Nc1ccc(CCc2ccc(NC(=O)CCc3ccc(O[C@@H]4O[C@H](CO)[C@H](O)[C@H](O)[C@H]4O)cc3)cc2S(=O)(=O)O)c(S(=O)(=O)O)c1` [Compound L2], the microsomal CLint at 1 µM in data set [2] was 9.2 µL/min/mg. In data set [3], the Kd was 0.0328 ± 0.0015 µM, the koff turned out to be 0.00707 ± 0.0011 s⁻¹, the kon was 215 ± 29 x10^3/Ms and the “Relative potency r.p. (SPR)” value is recorded as 115. Further, the IC50 in data set [4] came out at 4.6 ± 2.2 µM.
